Reference: patent US20240139149A1, “THERAPEUTIC USES OF UROLITHIN DERIVATIVES” (Vandria SA, priority 2022, published 2024)

How the values were obtained:
APTK-OVA tumors = assay: Adoptive transfer of UA-conditioned OT-1 T cells into Rag1−/− mice; type: in vivo, mouse; settings: seven days after transfer into Rag1−/− mice, T cells cultured 48 hours with UA
Procedure: For adoptive cell transfer, purified splenic T cell from OT1 mice were isolated and activated using αCD3/αCD28 stimulation beads for 48 h. After magnetic bead removal, 1×10^6 T of activated T cell were intravenously injected into Rag1−/− recipients. To study survival of transferred T cells, stimulated OT-1 T cells were injected into mice without tumors. Subsequently, after 7 days, spleens were isolated and splenocytes were stained for the CD8+ subsets as described below. To understand antitumor immunity conferred by transferred OT-1 lymphocytes, cells were injected into mice carrying APTK-OVA tumors 10 days after subcutaneous organoid transplantation. Tumor growth was assessed as described above. Mice were kept under regular chow food for the T cell adoptive transfer experiment and sacrificed collectively when maximum tumor diameter extended 1.5 cm.
Tumors were minced and digested with Tumor & Tissue Dissociation Reagent (BD Horizon) for 30 min. The remaining organ pieces were filtered through a 70 µm cell strainer. Cells were then washed with PBS 1% BSA and 2 mM EDTA. Immune cells were enriched on a 30%/40%/75% Percoll gradient after a 1700 rpm 17 min centrifugation. Then, tumor immune filtrates or activated T cells were stained with Fixable Viability Dye-eF780 (65-0865-14; eBioscience), αCD45-FITC (30-F11; 11-0451-85; eBioscience), αCD11b-BV650 (M1/70; 56340; BD) α-CD11c-BV785 (HL3; 563735; BD), aLy6G-BV605 (53-6.7; 563005; BD), aLy6C-AF700 (HK1.4; 128024; Biolegend), aF4/80-PE (BM8; 12-4801-82, eBioscience), aPD-L1-PECy7 (MIH5; 25-5982-80, eBioscience); or with Fixable Viability Dye-eF780 (ebioscience), αCD45-BV786 (30-F11; 564225; BD), αCD4-BUV496 (GK1.5; 564667; BD), αCD8-BV605 (100744; Biolegend), aPD1-APC (J43; 17-9985-82; eBioscience), aTIM-3-PECy7 (RMT3-23; 119715; Biolegend), aCTLA4-PE (UC10-4B9; 106305; Biolegend) and aLag3-BV421 (C9B7W; 125221, Biolegend); or with Fixable Viability Dye-eF780 (eBioscience), αCD4-FITC (H129.19; 553650; BD), αCD8-APC (53-6.7; 17-0081-83; eBioscience), αCD44-AF400 (IM7; 103026; Biolegend), αCD62L-BV785 (MEL-14; 104440; Biolegend), αSca-1-PerCP-Cy5.5 (D7; 45-5981-82; eBioscience), αCD95-PE (Jo2; 554258; BD); or with Fixable Viability Dye-eF780 (eBioscience), αCD8-BV650 (53-6.7; 563234; BD), αCD4-BUV496 (GK1.5; 564667; BD), αCD127-APC (A7R34; 17-1271-82; eBioscience), αCD95-FITC (SA367H8;152605; Biolegend), αCD44-AF400 (IM7; 103026; Biolegend), αCD62L-BV785 (MEL-14; 104440; Biolegend), αSca-1-PerCP-Cy5.5 (D7; 45-5981-82; eBioscience) followed by intracellular staining of aTCF1-PE (S33-966; 564217; BD), or PGC-1α (sc-518025; D-5; santa cruz), or aCyclinD1 (MA5-28534, DCS-6; Invitrogen) with transcription factor buffer set kit (BD Biosciences). To study cytokine expression, tumor immune infiltrates were stimulated ex vivo with 20 ng/mL PMA and […] Ionomycin (Sigma) for 3 h in T cell activation medium with Brefeldin A (Biolegend). For T cell in vitro activation experiments over several days, Brefeldin A was added to the medium for the last 3 hours. Cells were then stained with Fixable Viability Dye-eF780 (eBioscience), αCD8-PeCy7 (53.6-7; 100722; Biolegend), αCD4-AF700 (GK1.5; 100429; Biolegend), and intracellular staining for cytokine assessment was performed with BD Cytofix/Cytoperm (BD) with 20 min fixation and overnight incubation with αGranzyme B-FITC (GB11; 515403; Biolegend), αIFNγ-PerCPCy5.5 (XMG1.2; 45-7311-82; eBioscience) and αTNFa-BV711 (MP6-XT22; 563944; BD). For flow cytometric analysis of mitochondria and lysosomes 500 μl of Mitotracker Red (200 nM; ThermoFisher) or Lysotracker Red DND-99 (75 nM; ThermoFisher) were applied followed by surface staining. To study changes in mitochondrial membrane potential, Mitoprobe TMRM kit (ThermoFisher) was used according to the manufacturer's instructions. Cell proliferation was assessed by CellTrace Violet (Invitrogen, C34557) at a concentration of […] according to manufacturer's instructions. […]

human T lymphocytes = assay: Proportion of human T memory stem cells (Tscm); type: cell-based
Excerpt: Human peripheral blood mononuclear cells were purified with a Ficoll-Paque (GE healthcare) gradient. T cells were enriched with EasySep Human T Cell Isolation Kit (StemCell) and activated with dynabead Human T-Activator CD3/CD28 for T Cell Expansion and Activation Kit (11131D; ThermoFisher Scientific). Cells were activated with compound 66 at the indicated concentration or DMSO. Tscm cells are identified and counted based on the expression of five different markers: CD45RA^+CCR7^HiCD62L^+CD95^+CD8^+.
Human peripheral blood mononuclear cells were purified with a Ficoll-Paque (GE healthcare) gradient. T cells were enriched with EasySep Human T Cell Isolation Kit (StemCell) and activated with dynabead Human T-Activator CD3/CD28 for T Cell Expansion and Activation Kit (11131D; ThermoFisher Scientific). Cells were activated with the 77 at 400 nM or DMSO.
Staining was performed as described in Example 15.
(§1) Flow cytometry and analysis was performed as described in Example 14.

mouse T lymphocytes [1] = assay: Proportion of mouse T memory stem cells (Tscm); type: cell-based; settings: 2 μM, 72 h
Procedure: T cells were isolated and stimulated as described in Example 14.
Tscm represent a subset of minimally differentiated T cells, which share a CD44^loCD62L^hi phenotype with naïve T cells, but are phenotypically distinct by expressing high levels of Sca1 (Gattinoni et al., 2009). Tscm are therefore identified as CD44^−CD62L^+Sca1^hi cells.
as §1

[2] = system: rat model of heart failure; assay: Rat model of heart failure after myocardial infarction (LAD ligation), echocardiography; type: in vivo
Excerpt: Generation of a rat model of cardiac impairment following myocardial infarction Fifty (50) Wistar male rats from Janvier Labs (France), 6-week-old (200-224 g on the day of arrival), were included in this study. Acclimatization of animals lasted at least 5 days. During the study, animals had free access to food and drinking water ad libitum.
Myocardial infarction (MI) was induced by chronic left anterior descending coronary artery (LAD) ligation performed at DO. Rats were anesthetized with an intraperitoneal (IP) injection of Medetomidine (0.5 mg/kg) and Ketamine (50 mg/kg), intubated and ventilated at 10 mL/kg tidal volume and 70-80 cycles/min. Body temperature was maintained between 36.5° C. and 37.5° C. via a thermoregulated heating pad connected to a rectal probe. A left lateral thoracotomy was carefully performed so as to expose the heart. Then, a suture was placed around the LAD (4/0 Silk, Ethicon), around 2 mm below the left atrium and close to the interventricular junction, in order to obtain infarct size (IS) near 40% of the total left ventricular (LV) area. Chest was closed, air was expelled from the rib cage to avoid pneumothorax and quick reanimation was performed using atipamezole hydrochloride (IM, 0.5 mg/mL, Zoetis). A peri-operative care of the animals was performed during the surgery: • Pre-operative care by one carprofen injection (SC, 5 mg/kg, Pfizer) and one lidocaine injection on the site of incision (SC, 4 mg/kg, Vetoquinol). • Post-operative care: 3 injections of buprenorphine (SC, 0.01 mg/kg, Axience) administered after awakening and during the first 24 hours after the surgery.
Rats underwent transthoracic echocardiographic examination in order to assess cardiac morphology and function in a noninvasively way. […]
Left ventricle (LV) function was assessed using ejection fraction (EF), calculated as follow: […]
Statistical analysis was performed with the Graphpad 6 software. […] First, differences were assessed between Sham/Vehicle and MI/Vehicle using an unpaired ttest followed by the appropriate post-hoc test. […]

mouse T lymphocytes [3] = assay: Mitochondrial content (Mitotracker positive cells) in mouse T lymphocytes; type: cell-based; settings: 2 μM, 72 h; for percentage of Mitotracker positive cells: DMSO 44%
Procedure: Splenic murine T cells were isolated from mice aged 6-20 weeks by negative selection with EasySep mouse T cell isolation kit (Stem cell) according to the manufacturer's instructions. T cell activation was initiated using CD3/CD28 activation beads (11456D; ThermoFisher Scientific) at a ratio of 25 μl dynabeads per 0.5×10^6 T-cells. Cells were activated with test compounds at 2 μM or DMSO in T cell activation Medium (RPMI (ThermoFisher Scientific) 10% FBS (South America origin), 10 mM Hepes (Sigma), 1× Non-Essential Amino Acid, 1 mM Sodium Pyruvate, 50 μM β-Mercaptoethanol, 100 U/ml penicillin, 100 μg/ml streptomycin and 2 mM Glutamax (ThermoFisher Scientific) for 72 h. For subsequent analysis, activating beads were magnetically removed prior staining.
For flow cytometric analysis of mitochondria 500 μl of Mitotracker Red (200 nM; ThermoFisher) was applied followed by surface staining.
Cell doublets and cells debris were excluded from the analysis by gating FSC-A vs FSC-H followed by SSC-A vs SSC-H dot plots and FSC-A vs SSC-A dot plots, respectively. eFluor 780 highly positive cells, i.e, dead cells, were gated out of the analysis. Data was acquired on Canto II (BD), Fortessa (BD) and Aurora (Cytek) cytometers and analyzed with FlowJo.

[4] = MI rats, 0.5 mg/kg oral gavage, Month 2, M-mode, vs MI/Vehicle

Compound | number of engrafted CD8+ T cells (APTK-OVA tumors) | Tscm proportion of CD3+ lymphocytes (human T lymphocytes; indicated concentration vs DMSO) | increase in the percentage of Tscm in CD8+ cells vs DMSO (mouse T lymphocytes [1]) [%] | percentage of Tscm in CD8+ cells (mouse T lymphocytes [1]; DMSO 16.7%) [%] | LV systolic dysfunction induced by MI ([2]; 0.5 mg/kg, 2 months after LAD ligation) | ejection fraction (EF) [2, 4] | fractional shortening (FS) [2, 4] | increase in the percentage of Mitotracker positive cells vs DMSO (mouse T lymphocytes [3]) [%] | percentage of Mitotracker positive cells (mouse T lymphocytes [3]) [%] | increase in Tscm proportion of CD8+ lymphocytes (human T lymphocytes; 400 nM, 72 h, vs DMSO) [fold]
O=c1oc2cc(O)ccc2c2ccc(O)cc12 [Urolithin A] | significantly higher |  |  |  |  |  |  |  |  | 
O=C1OCc2cc(O)ccc2-c2ccc(O)cc21 [compound 66, 3,9-dihydroxydibenzo[c,e]oxepin-5(7H)-one] |  | significant increase | 69 | 28.2 | able to prevent | significant increases | significant increases | 27.5 | 56.1 | 
CN1C(=O)Cc2cc(O)ccc2-c2ccc(O)cc21 [compound 77, 3,9-dihydroxy-5-methyl-5,7-dihydro-6H-dibenzo[b,d]azepin-6-one] |  |  |  |  |  |  |  | 43.4 | 63.1 | ~3
